Data: US20230348459A1, “PYRROLIDINE COMPOUND AND USE THEREOF” (SIMCERE PHARMACEUTICAL CO., LTD., priority 2020, published 2023)
Like-named read-outs stand apart in the source and are kept apart here.

Assays:
[1] = Plasma protein binding rate, equilibrium dialysis, mouse plasma; format: in vitro ADME; conditions: pH 7.4, CD-1 mouse plasma, 6 hours dialysis
Experimental: The protein binding rate of the compounds of the present invention in the plasma of five species (human, monkey, dog, rat and mouse) was determined by the following test method.
• 1. Human plasma (BioIVT), beagle dog plasma (BioIVT), SD rat plasma (BioIVT), CD-1 mouse plasma (BioIVT); • 2. 96-well equilibrium dialysis plate (HTDialysis LLC, Gales Ferry, CT, HTD96B), equilibrium dialysis membrane (MWCO 12-14 K, #1101); • 3. Positive control compound warfarin; • 4. ABI QTrap 5500 liquid chromatography-mass spectrometry.
1. Preparation of a buffer with a concentration of 100 mM sodium phosphate and 150 mM NaCl: an alkaline solution with a concentration of 14.2 g/L Na2HPO4 and 8.77 g/L NaCl was prepared with ultrapure water, and an acidic solution with a concentration of 12.0 g/L NaH2PO4 and 8.77 g/L NaCl was prepared with ultrapure water. The alkaline solution was titrated with the acidic solution to pH 7.4 to prepare a buffer with a concentration of 100 mM sodium phosphate and 150 mM NaCl.
2. Preparation of dialysis membrane: the dialysis membrane was soaked in ultrapure water for 60 minutes to separate the membrane into two pieces, then soaked in 20% ethanol for 20 minutes, and finally soaked in the buffer used for dialysis for 20 minutes.
3. Preparation of plasma: the frozen plasma was quickly thawed at room temperature, then the plasma was centrifuged at 3,220 g at 4° C. for 10 min to remove clots, and the supernatant was collected into a new centrifuge tube. The pH of the plasma was measured and recorded, and the plasma with pH of 7-8 was used.
3. Preparation of compound-containing plasma samples: 10 mM stock solution of compounds of the present invention or positive control compounds were diluted with DMSO to obtain 200 µM working solution. […]
The peak areas of the compounds on the buffer side and the plasma side were determined. […]
All the data was calculated by the Microsoft Excel software. The plasma protein binding rate values of the compounds of the present invention were calculated.

[2] = tested on: MCF-7 subcutaneous tumor; assay: Growth inhibition in MCF-7 subcutaneous tumor model in mice; format: in vivo, NPG mice; conditions: for TGI: 3 weeks; for Average tumor volume Day 0: Day 0 (grouping); for Effect on body weight of mice: at the doses tried
Experimental: Cell inoculation: 0.1 ml/(containing 1 × 10^7) MCF-7 cell suspension (volume ratio of D-PBS : Matrigel = 1 : 1) was inoculated subcutaneously on the right back of each mouse, and the mice were inoculated subcutaneously with 17β-estradiol tablets four days before the cell inoculation.
Administration: The compound # Example 1 was administered at a dose of 1, 3, or 10 mg/kg, orally (PO), once daily (QD) for 3 weeks. The compound # Example 2 was administered at a dose of 10 mg/kg, orally (PO), once daily (QD) for 3 weeks. 8 mice were in the vehicle group and 6 mice were in the administration group.
The diameter of the tumor was measured with vernier calipers twice weekly. The calculation formula of tumor volume was V = 0.5a × b^2, wherein a and b represented the long and short diameters of the tumor, respectively. The body weights of the mice were weighed twice weekly.
The tumor-inhibiting efficacy of the compound was evaluated using tumor growth inhibition (TGI) (%).

[3] = Blood-brain barrier (BBB) permeability in rats; format: in vivo, SD rats; conditions: for Kp at 2 h / concentration at 2 h: rat, female SD rats, 100 mg/kg QD, 2 h after administration; for Kp at 2 h: brain/plasma, read-out: B/P ratio
Experimental: Six female SD rats (200-300 g, 6-8 weeks) were randomized into 2 groups, 3 rats/group. Each rat was given the compounds of the present invention, and the vehicle was 0.5% methylcellulose aqueous solution. Animals were fed with water as usual and fasted overnight before the experiment, and feeding was resumed four hours after administration. Plasma and brain tissue were collected from rats of each group 2 h after administration. The whole blood sample collected was placed in a K2EDTA anticoagulation tube and centrifuged for 5 min (12,000 rpm, 4° C.) and then the plasma was taken for later detection. After tissue collection, the tissue was dried with filter paper, and the samples were stored in a -80° C. freezer for later detection.
10 µL of the rat plasma sample was taken and 150 µL of acetonitrile solvent (wherein an internal standard compound was contained) was added to precipitate proteins. After the mixture was vortexed for 5 min, centrifugation (14,000 rpm) was performed for 5 min. The supernatant was diluted 2-fold with water containing 0.1% (v/v) FA and injected into the LC-MS/MS system (AB Sciex Triple Quad 6500+) for the quantitative detection. For the 10x diluted samples, 2 µL of the sample was taken and 18 µL of blank plasma was added. After the mixture was vortexed for 0.5 min, 300 µL of acetonitrile solvent (wherein an internal standard compound was contained) was added to precipitate proteins. The other processing steps were identical to those for the samples not diluted. A calibration standard curve was prepared in SD rat plasma along with plasma quality control samples to determine the plasma concentration.
Brain tissue samples from rat were first homogenized with 4 times the mass volume of PBS homogenate. 20 µL of brain tissue homogenate sample was taken, and 20 µL of blank mouse plasma was added. The mixture was diluted and mixed uniformly, and 600 µL of acetonitrile solvent (wherein an internal standard compound was contained) was added to precipitate proteins. After the mixture was vortexed for 5 min, centrifugation (14,000 rpm) was performed for 5 min. The supernatant was diluted 2-fold with water containing 0.1% (v/v) FA and injected into the LC-MS/MS system (AB Sciex Triple Quad 6500+) for the quantitative detection.

[4] = brain, read-out: Drug concentration in brain
[5] = plasma, read-out: Drug concentration in plasma

SMILES	fraction unbound at 6 h, 1 µM [1]	TGI ([2]; 10 mg/kg PO QD) [%]	Average tumor volume Day 0 ([2]; 10 mg/kg PO QD) [mm^3]	Average tumor volume Day 21 ([2]; 10 mg/kg PO QD) [mm^3]	Effect on body weight of mice [2]	Kp at 2 h [3]	concentration at 2 h [3, 4] [ng/g]	concentration at 2 h [3, 5] [ng/mL]	TGI ([2]; 1 mg/kg PO QD) [%]	Average tumor volume Day 0 ([2]; 1 mg/kg PO QD) [mm^3]	Average tumor volume Day 21 ([2]; 1 mg/kg PO QD) [mm^3]	TGI ([2]; 3 mg/kg PO QD) [%]	Average tumor volume Day 0 ([2]; 3 mg/kg PO QD) [mm^3]	Average tumor volume Day 21 ([2]; 3 mg/kg PO QD) [mm^3]	Tumor shrinkage (in words) ([2]; doses of 3 mg/kg and 10 mg/kg)	Effect on tumor growth (in words) ([2]; orally once daily at 1 mg/kg, 3 mg/kg or 10 mg/kg, P < 0.01)	Blood-brain barrier permeability (in words) ([3]; rats)
C[C@@H]1Cc2c([nH]c3ccccc23)C(c2c(F)cc(N[C@H]3CCN(CCCF)C3)cc2F)N1CC(F)(F)F (stereo in doubt) [Example 4, (S)-N-(3,5-difluoro-4-((1S,3R)-3-methyl-2-(2,2,2-trifluoroethyl)-2,3,4,9-tetrahydro-1H-pyridino[3,4-b]indol-1-yl)phenyl)-1-(3-fluoropropyl)pyrrolidin-3-amine]	0.002																
C[C@@H]1Cc2c([nH]c3ccccc23)C(c2c(F)cc(N[C@H]3CCN(CCCF)C3)cc2F)N1CC(F)(F)CO (stereo in doubt) [Example 7, 3-((1S,3R)-1-(2,6-difluoro-4-(((S)-1-(3-fluoropropyl)pyrrolidin-3-yl)amino)phenyl)-3-methyl-3,4-dihydro-1H-pyridino [3,4-b]indole-2(9H)-yl)-2,2-difluoropropane-1-ol]	0.012	140.09	170	80	do not significantly affect the body weight	0.28	703	2540									
C[C@@H]1Cc2c([nH]c3ccccc23)[C@@H](c2ccc(N[C@H]3CCN(CCCF)C3)cn2)N1CC(F)(F)F [Example 3, N-((S)-1-(3-fluoropropyl)pyrrolidin-3-yl)-6-((1S,3R)-3-methyl-2-(2,2,2-trifluoroethyl)-2,3,4,9-tetrahydro-1H-pyridino[3,4-b]indol-1-yl)pyridine-3-amine]	0.019	138.17	177	91	do not significantly affect the body weight	4.2	10600	2620	89.08	183	207	114.71	169	136	shows an effect of shrinking tumor	significant inhibitory effects	excellent blood-brain barrier permeability
